US20210379077A1, “TOPOISOMERASE II CATALYTIC INHIBITOR COMPOUND THERAPEUTICS FOR CANCER TREATMENT, METHODS AND USES” (The University of British Columbia, priority 2018, published 2021)

Experiments:
Topoisomerase II = target: T1, Topoisomerase II (Homo sapiens, UniProt P11388); test: Topoisomerase II inhibition screening (supercoiled plasmid relaxation, then kDNA decatenation); type: biochemical; design: key to TOP2 Inhib.: Y is an indication that activity was found
T1 construct: purchased TopoGENE (TopoGEN) TG2000H / kit TG1001
Protocol: In vitro Topo II activity assays—K-DNA decatenation assays were performed using the human Topo II assay kit (TG1001, TopoGENE™) with Etoposide and ICRF193 as poison and catalytic inhibitors respectively. DNA relaxation assays were performed by incubating the supercoiled pHOT™ plasmid with human Topo IIα (TG2000H™, TopoGENE™) at 37 degrees for one hour. Reactions were stopped by adding 10% SDS, EDTA and proteinase K. Plasmid DNAs were separated on DNA agarose gel and stained with ethidium bromide for visualization.
Medium Throughput Screening Assays A supercoiled plasmid relaxation assay was used as a first, course filter to determine candidate small molecules. Small molecule candidates that were sufficiently active in the first round screening were then subject to the kDNA decatenation assay.
Second Round Screening With the discovered active compounds 19 and 23, a new screen was initiated to look for similar molecules. For this, the shape similarity screening program ROCS™^10 was used The compounds chosen for the ROCS™ search was based on the docking conformation of Compound 23. The ZINC-15 library filtered down to 6 million molecules described previously was used for this screening. The top 62 molecules were hand-picked based on their ROCS™ similarity as well as their docking scores. These molecules were ordered and tested with the same medium throughput assays previously described. A large enrichment in the proportion of active molecules was observed, of close to 10-fold relative to the first round, validating the virtual screening pipeline.

pHOT plasmid DNA = test: DNA intercalating assay; conditions: 0, 5, 10, 25 and 50 μM, compared with m-AMSA
Protocol: DNA samples were separated by electrophoresis on 0.8% agarose gels and visualized by ethium bromide staining. The positions of K-DNA and decatenated (D) DNA products are marked by arrows. Experiments were repeated five times and the densitometry of the D bands were used to establish an inhibition curve to calculate IC50. (b) Supercoiled pHOT™ plasmid was incubated with human TOP2a in the presence of 50 μM Etopside, 50 uM ICRF193 or 0-50 μM of compound #60 (Top60) compound at 37° C. for 1 hour. DNA products were separated by electrophoresis on 1% agarose gels and visualized by ethium bromide staining. The positions of supercoiled (SC), nicked (N), and relaxed (R) DNA bands are marked by arrows. Experiments were repeated five times and the densitometiy of the SC bands were used to establish an inhibition curve to calculate IC50. (c) Supercoiled pHOT™ plasmid was incubated with Topoisomerase I prior to addition of either mAMSA or compound #60 (Top60) at concentrations of 0, 5, 10, 25 and 50 μM at 37° C. for 30 minutes. […]
Top60 is a catalytic inhibitor of Topo II To verify that our lead Compound 60(Top60), the formation of ds DNA breaks was assayed both in and outside of cells. […] Furthermore, H2AXγ protein expression was assessed by Western blot to determine if the lead compound could cause DNA damage in cells, and compared to Etoposide as a control (FIG. 3b). […]

Topo IIα [1] = target: T2, Topo IIα (Homo sapiens, UniProt P11388); test: Thermal shift assay in cells; type: binding; design: endogenous in cells; host or cells: K562; conditions: K562 cells, 20 μM
Protocol: (§1) Whole cell lyses were collected and used to measure protein levels of TOP2α, TOP2β with β-Actin as a loading control; (b) K562 cells were treated with 0, 1, and 10 μM of Top60 for 24 hours. Protein lyses were collected from soluble nuclear extract, chromatin fraction or whole cell lysate. TOP2α and TOP2β protein levels were determined by immunoblotting with Lamin A/C, Histone H3 and β-Actin as loading controls; and (c) Etoposide-resistant K562 cell line was established by treating cells with 0.5 μM of Etoposide for 6 months. TOP2α, TOP2β, and β-actin protein levels were determined by immunoblotting. Etoposide-resistant K562 cells were treated with 0, 1, 10, 15 and 20 μM of Top60, Etoposide or ICRF187 for 48 hours. Cell proliferation rates were determined by MTS assays.
(§2) Thermal shift and chromatin fraction assays—In the thermal shift assays, cells were treated with vehicle or compound #60 (Top60) for 1 hour, split into equal aliquots to be heated at 37 to 46 degrees in a PCR machine. Protein lyses were collected to perform immunoblotting assays with Topo II antibodies. In the chromatin fraction assays, cells were treated with vehicle or compound #60 (Top60). Both soluble and chromatin associated proteins were fractioned following the protocol described by Wysocka J et al.^18. Protein lyses were collected to perform immunoblotting assays with Topo II antibodies. […]

Topo IIα [2] = target: T2, Topo IIα; test: Chromatin fraction assay; type: cell-based; design: endogenous in cells; host or cells: K562; conditions: K562 cells, 0, 1 and 10 μM, 24 hours
Protocol: as §1, §2

T1 sequence (P11388 whole entry): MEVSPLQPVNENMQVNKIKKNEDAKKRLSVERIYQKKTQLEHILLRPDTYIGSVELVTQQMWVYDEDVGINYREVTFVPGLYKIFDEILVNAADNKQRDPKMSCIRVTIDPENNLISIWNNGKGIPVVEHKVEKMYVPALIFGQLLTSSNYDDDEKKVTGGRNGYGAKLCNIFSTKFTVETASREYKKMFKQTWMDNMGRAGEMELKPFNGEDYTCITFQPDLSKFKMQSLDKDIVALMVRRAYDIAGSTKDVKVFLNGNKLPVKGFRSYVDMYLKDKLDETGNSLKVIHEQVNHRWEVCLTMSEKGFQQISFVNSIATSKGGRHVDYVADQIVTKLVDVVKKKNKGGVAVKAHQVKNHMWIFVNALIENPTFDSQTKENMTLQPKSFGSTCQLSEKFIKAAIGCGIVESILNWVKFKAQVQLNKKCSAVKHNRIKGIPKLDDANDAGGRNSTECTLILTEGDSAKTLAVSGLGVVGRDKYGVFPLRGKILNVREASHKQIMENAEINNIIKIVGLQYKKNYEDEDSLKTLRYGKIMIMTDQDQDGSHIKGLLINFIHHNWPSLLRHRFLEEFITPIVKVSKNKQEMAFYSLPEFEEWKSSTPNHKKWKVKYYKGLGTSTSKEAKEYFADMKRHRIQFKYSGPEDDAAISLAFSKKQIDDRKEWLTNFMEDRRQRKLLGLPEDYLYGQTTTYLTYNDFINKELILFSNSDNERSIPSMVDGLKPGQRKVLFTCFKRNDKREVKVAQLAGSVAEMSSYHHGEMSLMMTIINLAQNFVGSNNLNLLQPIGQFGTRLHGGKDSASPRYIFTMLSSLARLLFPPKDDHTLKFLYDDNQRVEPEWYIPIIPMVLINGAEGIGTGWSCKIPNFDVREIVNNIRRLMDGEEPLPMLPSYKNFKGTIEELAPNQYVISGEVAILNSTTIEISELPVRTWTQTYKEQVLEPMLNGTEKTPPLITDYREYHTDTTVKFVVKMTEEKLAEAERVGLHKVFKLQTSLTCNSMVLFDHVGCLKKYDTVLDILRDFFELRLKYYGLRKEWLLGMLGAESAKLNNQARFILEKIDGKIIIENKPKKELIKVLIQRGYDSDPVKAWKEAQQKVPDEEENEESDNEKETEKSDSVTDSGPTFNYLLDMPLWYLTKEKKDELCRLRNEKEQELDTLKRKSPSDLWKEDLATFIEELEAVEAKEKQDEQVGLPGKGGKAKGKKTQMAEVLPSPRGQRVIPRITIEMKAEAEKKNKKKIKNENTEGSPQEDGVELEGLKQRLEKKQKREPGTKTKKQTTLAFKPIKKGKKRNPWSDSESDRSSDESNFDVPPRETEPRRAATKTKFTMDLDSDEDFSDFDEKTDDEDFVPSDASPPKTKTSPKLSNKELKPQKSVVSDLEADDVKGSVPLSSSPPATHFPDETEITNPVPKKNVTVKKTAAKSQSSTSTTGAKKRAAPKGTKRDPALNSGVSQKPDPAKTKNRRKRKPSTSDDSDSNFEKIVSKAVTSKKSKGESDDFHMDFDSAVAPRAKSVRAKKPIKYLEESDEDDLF
T2 sequence (P11388 whole entry): as above

O=C(Nc1ccc(Nc2ccccc2)cc1)c1ccc[nH]c1=S [Compound 60]
TOP2 Inhib. (Topoisomerase II): Y | inhibitory activity against Topo II compared with ICRF-193 (Topoisomerase II): more potent inhibitory activity against Topo II than ICRF-193 | IC50 of Topo II inhibition (Topoisomerase II; assay not specified): nanomolar | relative activity among compounds tested in the screening round (Topoisomerase II; medium throughput relaxation and kDNA decatenation assays): most active of the group | Topoisomerase II inhibitory activity (Topoisomerase II; result in words): inhibits TOP2 activity | DNA intercalation (pHOT plasmid DNA): not an intercalator | temperature up to which Topo IIα was stabilized (Topo IIα [1]): up to 43 °C | chromatin binding of Topo IIα (Topo IIα [2]): became unbound from chromatin
